In experiment [1] the test system is normal ICR mice. As to the kind of experiment: Preliminary evaluation of hypoglycemic activity: effects on glucose tolerance in normal ICR mice. The class given is in vivo. The settings on record: oral 0.3, 1, 3, 10 mg/kg, serum glucose. The procedure: Effects on glucose tolerance in normal ICR mice of examples 15 and 16 were determined. Hypoglycemic activities in vivo were preliminary evaluated. Preparation procedure: drugs were accurately weighed and dissolved in double-distilled water, misce bene to obtain 0.5 mg/ml suspension, then diluted into colorless and clear solutions which concentration were 0.15, 0.05 and 0.015 mg/ml. Administrated Dose: the oral doses were 0.3, 1, 3, 10 mg/kg and the volume was 20 ml/kg. […] Glucose kits was used in the determination of serum glucose levels. Take 250 μl enzyme fluid, then add 5 μl serum. Establish blank tube (by added 5 μl double-distilled) and the standard tube (by added 5 μl standard glucose solution) simultaneously, misce bene. 37° C. water bath for 20 min. To adjust to zero value with blank tube, OD(505 nm) levels were determined. Serum glucose level BG(mmol/l)=ODsample tube/ODstandard tube×5.55.

The target in experiment [2] is T1, Dipeptidylpeptidase IV, Human Placenta (Homo sapiens, UniProt P27487).
T1 construct: Dipeptidylpeptidase IV, Human Placenta (cat. 317630) of Calbiochem company; purchased Calbiochem 317630; host or cells: human placenta (tissue-derived natural enzyme)
As to the kind of experiment: Active inhibition DPP IV assay (DPP IV-Glo Protease Assay Kit, chemical luminescent). The class given is biochemical. The following applies: chemiluminescence, two parallel treatments. The procedure: IC50 is determined by a NovoStar ELIASA (BMG Co. German).
According to the manual of the kit, this invention inspected the amount of the each reagent in the experimental, corresponding amount of DPPIV enzyme and chemiluminescence detection methods.

The structures appear in SMILES notation. Counter-ions that a name gives are not always drawn.

T1 sequence (P27487 whole entry): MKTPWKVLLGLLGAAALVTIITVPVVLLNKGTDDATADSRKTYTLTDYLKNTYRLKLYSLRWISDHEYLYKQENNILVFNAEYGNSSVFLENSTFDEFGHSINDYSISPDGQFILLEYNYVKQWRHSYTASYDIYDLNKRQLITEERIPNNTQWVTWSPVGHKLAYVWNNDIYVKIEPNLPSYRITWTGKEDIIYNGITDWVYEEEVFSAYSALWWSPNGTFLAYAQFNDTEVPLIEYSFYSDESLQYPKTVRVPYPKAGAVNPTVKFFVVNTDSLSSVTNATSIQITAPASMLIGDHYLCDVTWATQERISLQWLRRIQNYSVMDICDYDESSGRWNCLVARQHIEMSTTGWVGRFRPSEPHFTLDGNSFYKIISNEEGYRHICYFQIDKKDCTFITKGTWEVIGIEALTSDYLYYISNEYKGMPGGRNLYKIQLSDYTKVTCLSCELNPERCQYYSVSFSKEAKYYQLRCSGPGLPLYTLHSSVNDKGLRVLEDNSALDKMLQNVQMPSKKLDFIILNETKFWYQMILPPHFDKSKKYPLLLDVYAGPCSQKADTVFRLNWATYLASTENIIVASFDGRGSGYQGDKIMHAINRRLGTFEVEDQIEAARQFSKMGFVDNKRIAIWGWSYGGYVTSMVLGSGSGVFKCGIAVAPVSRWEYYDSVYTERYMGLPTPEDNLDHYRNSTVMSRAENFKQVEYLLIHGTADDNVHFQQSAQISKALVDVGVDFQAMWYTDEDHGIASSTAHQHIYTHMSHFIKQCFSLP

In the case of `Cl.N#CC1CCCN1C(=O)CNC1CC2CC(=O)CC2C1` (stereo not shown) [Example 15, 1-[2-(5-oxo-octahydro-pentalen-2-ylamino)-acetyl]-pyrrolidine-2-carbonitrile hydrochloride], in experiment [1], the “inhibitor activity of DPPIV in vivo (hypoglycemic activity, glucose tolerance)” value is recorded as “good inhibitor activities of DPPIV in vivo”.
Turning to `Cl.N#CC1CCCN1C(=O)CNC1CC2CC(O)CC2C1` (stereo not shown) [Example 16, 1-(2-(5-hydroxyl-octahydro-pentalen-2-ylamino)-acetyl)pyrrolidine-2-carbonitrile hydrochloride], in experiment [1], the “in vivo activity compared with positive control LAF-237” value is “slightly better than LAF-237” and the “inhibitor activity of DPPIV in vivo (hypoglycemic activity, glucose tolerance)” value is recorded as “good inhibitor activities of DPPIV in vivo”.
In the case of `CC(C)NC(=O)OC1CC2CC(NCC(=O)N3CCCC3C#N)CC2C1` (stereo not shown) [Example 7, 5-[2-(2-cyano-pyrrolidin-1-yl)-2-oxo-ethylamino]-octahydro-pentalen-2-yl isopropyl-carbamate hydrochloride], half-maximal inhibition in experiment [2] (IC50) was put at 204 nM.
In experiment [2], `CCCCC1(O)CC2CC(NCC(=O)N3CCCC3C#N)CC2C1` (stereo not shown) [Example 10, 1-[2-(5-butyl-5-hydroxy-octahydro-pentalen-2-ylamino)-acetyl]-pyrrolidine-2-carbonitrilehydrochloride] yielded a 50% inhibitory concentration (IC50) of 18.3 nM.
Same read-out and setting: to `N#CC1CCCN1C(=O)CNC1CC2CC(OC(=O)Nc3ccccc3)CC2C1` (stereo not shown) [Example 6, 5-[2-(2-cyano-pyrrolidin-1-yl)-2-oxo-ethylamino]-octahydro-pentalen-2-yl phenyl-carbamate hydrochloride] belongs 121 nM.
Compound `CC(C)(C)NC(=O)OC1CC2CC(NCC(=O)N3CCCC3C#N)CC2C1` (stereo not shown) [Example 8, 5-[2-(2-cyano-pyrrolidin-1-yl)-2-oxo-ethylamino]-octahydro-pentalen-2-yl tert-butyl-carbamate hydrochloride] returned an IC50 in experiment [2] of 326 nM.

Usually IC50 stands for the midpoint of a concentration-inhibition curve. A low value points to inhibition by little substance.

Source of the values: patent US20090176847A1, “Dicyclooctane Derivatives, Preparation Processes and Medical Uses Thereof” (priority 2006, published 2009).
